Reference: US11414424B2, “Cardiac sarcomere inhibitors” (Cytokinetics, Inc., priority 2018, dated 2022)

These compounds were tested on bovine cardiac myofibrils (assay: Myofibril assay: PK/LDH-coupled steady-state ATPase activity of skinned bovine cardiac myofibrils). Conditions: Ca2+ activating to 75% of maximal rate.
Assay type: biochemical
Procedure, shortened: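 Steady-state ATPase of detergent-skinned bovine left-ventricular myofibrils (1 mg/mL), PK/LDH-coupled NADH read at 340 nm, in PIPES/MgCl2 buffer pH 6.8 with 50 μM ATP, 0.6 mM EGTA and CaCl2 set for 50% or 75% activation. Inhibition of activity measured.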
In the case of CC(=O)N1CC2(C1)C(=O)N(c1ccc(C#N)cc1)CC(=O)N2Cc1ccc(C(F)(F)F)cc1 [Compound 186, 4-(2-acetyl-6,9-dioxo-5-(4-(trifluoromethyl)benzyl)-2,5,8-triazaspiro[3.5]nonan-8-yl)benzonitrile], the “CDMF75 IC15” value was 15.8 µM.
With CC(=O)NCC1C(=O)N(c2ncc(Cl)cc2F)CC(=O)N1Cc1ccc(C(F)(F)F)cc1 (centres unmarked) [Compound 629, N-((4-(5-chloro-3-fluoro-pyridin-2-yl)-3,6-dioxo-1-(4-(trifluoromethyl)-benzyl)piperazin-2-yl)-methyl)acetamide] the “CDMF75 IC15” value was 32.4 µM.
COc1ccc(N2CC3(C2)C(=O)N(C(C)C)CC(=O)N3Cc2ccc(Cl)cc2)nn1 [Compound 51, 5-(4-chlorobenzyl)-8-isopropyl-2-(6-methoxypyridazin-3-yl)-2,5,8-triazaspiro-[3.5]nonane-6,9-dione] was tested, and the “CDMF75 IC15” value was 5.7 µM.
In the case of CNC(=O)N1CCC2(C1)C(=O)N(c1ccc(C#N)cc1)CC(=O)N2Cc1ccc(C(F)(F)F)cc1 (centres unmarked) [Compound 183, 9-(4-cyanophenyl)-N-methyl-7,10-dioxo-6-(4-(trifluoromethyl)benzyl)-2,6,9-triazaspiro[4.5]-decane-2-carboxamide], the “CDMF75 IC15” value was 4.6 µM.
In the case of CNC(=O)N1CC2(C1)C(=O)N(C(C)CC#N)CC(=O)N2Cc1ccc(C(F)(F)F)cc1 (centres unmarked) [Compound 320, 8-(1-cyanopropan-2-yl)-N-methyl-6,9-dioxo-5-(4-(trifluoromethyl)benzyl)-2,5,8-triazaspiro[3.5]nonane-2-carboxamide], the “CDMF75 IC15” value was 17.8 µM.
CC(C)N1CC(=O)N(Cc2ccc(Cl)cc2)C2(CN(c3cccnn3)C2)C1=O [Compound 23, 5-(4-chlorobenzyl)-8-isopropyl-2-(pyridazin-3-yl)-2,5,8-triazaspiro[3.5]-nonane-6,9-dione] was tested, and the “CDMF75 IC15” value was 2.2 µM.
Cn1cc(NC(=O)N2CC3(C2)C(=O)N(c2ccc(C#N)c(F)c2)CC(=O)N3Cc2ccc(C(F)(F)F)cc2)cn1 [Compound 200, 8-(4-cyano-3-fluorophenyl)-N-(1-methyl-1H-pyrazol-4-yl)-6,9-dioxo-5-(4-(trifluoromethyl)benzyl)-2,5,8-triazaspiro[3.5]nonane-2-carboxamide] was tested, and the “CDMF75 IC15” value was 0.9 µM.
For CC(C)N1CC(=O)N(Cc2ccc(Cl)cc2)C2(CCN(c3cc[nH]c(=O)c3)C2)C1=O (centres unmarked) [Compound 81, 6-(4-chlorobenzyl)-9-isopropyl-2-(2-oxo-1,2-dihydropyridin-4-yl)-2,6,9-triazaspiro[4.5]decane-7,10-dione], the “CDMF75 IC15” value was 1.4 µM.
With CC(=O)N1CC2(C1)C(=O)N(c1ccc(Cl)cc1F)C(C)C(=O)N2Cc1ccc(C(F)(F)F)cc1 (centres unmarked) [Compound 341, 2-acetyl-8-(4-chloro-2-fluorophenyl)-7-methyl-5-(4-(trifluoromethyl)benzyl)-2,5,8-triazaspiro[3.5]nonane-6,9-dione] the “CDMF75 IC15” value was 5.4 µM.
With CC(C)N1CC(=O)N(Cc2ccc(Cl)cc2)C2(CCN(C(=O)NC3CC3)C2)C1=O (centres unmarked) [Compound 122, 6-(4-chlorobenzyl)-N-cyclopropyl-9-isopropyl-7,10-dioxo-2,6,9-triazaspiro[4.5]decane-2-carboxamide] the “CDMF75 IC15” value was 20.5 µM.
CC(=O)N1CC2(C1)C(=O)N(c1ccc(Cl)cc1F)CC(=O)N2Cc1ccc(F)cc1 [Compound 785, 2-acetyl-8-(4-chloro-2-fluorophenyl)-5-(4-fluorobenzyl)-2,5,8-triazaspiro[3.5]nonane-6,9-dione] was tested, and the “CDMF75 IC15” value was 5.0 µM.
For O=C1C(C23CC(O)(C2)C3)N(Cc2ccc(C(F)(F)F)cc2)C(=O)CN1c1ncc(Cl)cc1F (centres unmarked) [Compound 838, 1-(5-chloro-3-fluoropyridin-2-yl)-3-(3-hydroxybicyclo[1.1.1]pentan-1-yl)-4-(4-(trifluoromethyl)benzyl)piperazine-2,5-dione], the “CDMF75 IC15” value was 3.8 µM.
In the case of CC(=O)NC[C@H]1C(=O)N(c2ncc(Cl)cc2F)CC(=O)N1Cc1ccc(C(F)(F)F)cc1 [Compound 625, (S)-N-((4-(5-chloro-3-fluoropyridin-2-yl)-3,6-dioxo-1-(4-(trifluoro-methyl)benzyl)piperazin-2-yl)methyl)acetamide], the “CDMF75 IC15” value was 14.5 µM.
In the case of Cc1cnc(N2CC(=O)N(Cc3ccc(C(F)(F)F)cc3)C(C3COC3)C2=O)c(F)c1 (single isomer, unassigned) [Compound 691B, 1-(3-fluoro-5-methylpyridin-2-yl)-3-(oxetan-3-yl)-4-(4-(trifluoromethyl)benzyl)piperazine-2,5-dione], the “CDMF75 IC15” value was over 39 µM.
O=C1C(C2COC2)N(Cc2ccc(C(F)F)cc2)C(=O)CN1c1ncc(Cl)cc1F (centres unmarked) [Compound 650, 1-(5-chloro-3-fluoropyridin-2-yl)-4-(4-(difluoro-methyl)benzyl)-3-(oxetan-3-yl)piperazine-2,5-dione] was tested, and the “CDMF75 IC15” value was 2.5 µM.
With CNC(=O)c1cccc(N2CC3(C2)C(=O)N(c2ccc(C#N)cc2F)CC(=O)N3Cc2ccc(C(F)(F)F)cc2)c1NC [Compound 547, 3-(8-(4-cyano-2-fluorophenyl)-6,9-dioxo-5-(4-(trifluoromethyl)benzyl)-2,5,8-triazaspiro[3.5]nonan-2-yl)-N-methyl-2-(methylamino)benzamide] the “CDMF75 IC15” value was 0.4 µM.
COc1cnc(N2CC(=O)N(Cc3ccc(C(F)(F)F)cc3)C(C3COC3)C2=O)c(F)c1 (single isomer, unassigned) [Compound 703A, 1-(3-fluoro-5-methoxypyridin-2-yl)-3-(oxetan-3-yl)-4-(4-(trifluoromethyl)benzyl)piperazine-2,5-dione] was tested, and the “CDMF75 IC15” value was 4.0 µM.
N#Cc1ccc(N2CC(=O)N(Cc3ccc(C(F)(F)F)cc3)C3(CCOC3)C2=O)c(F)c1 (centres unmarked) [Compound 286, 4-(7,10-dioxo-6-(4-(trifluoromethyl)benzyl)-2-oxa-6,9-diazaspiro[4.5]decan-9-yl)-3-fluorobenzonitrile] was tested, and the “CDMF75 IC15” value was 0.7 µM.
For CNC(=O)N1CC2(C1)C(=O)N(c1ccc(-c3noc(C(F)F)n3)cc1)CC(=O)N2Cc1ccc(C(F)(F)F)cc1 [Compound 165, 8-(4-(5-(difluoromethyl)-1,2,4-oxadiazol-3-yl)-phenyl)-N-methyl-6,9-dioxo-5-(4-(trifluoromethyl)-benzyl)-2,5,8-triazaspiro-[3.5]nonane-2-carboxamide], the “CDMF75 IC15” value was 1.4 µM.
CC(=O)N1CC2(C1)C(=O)N([C@H]1CC[C@H](C)CC1)CC(=O)N2Cc1ccc(C(F)(F)F)cc1 [Compound 322, 2-acetyl-8-((1r,4r)-4-methylcyclohexyl)-5-(4-(trifluoromethyl)benzyl)-2,5,8-triazaspiro[3.5]-nonane-6,9-dione] was tested, and the “CDMF75 IC15” value was 10.8 µM.
With CC(C)NC(=O)N1CCC2(C1)C(=O)N(C(C)C)CC(=O)N2Cc1ccc(Cl)cc1 (centres unmarked) [Compound 383, 6-(4-chlorobenzyl)-N,9-diisopropyl-7,10-dioxo-2,6,9-triazaspiro[4.5]-decane-2-carboxamide] the “CDMF75 IC15” value was over 39 µM.
For Cc1ccc(CN2C(=O)CN(C(C)C)C(=O)C2c2ccc(Cl)cc2)cc1 (centres unmarked) [Compound 305, 3-(4-chlorophenyl)-1-isopropyl-4-(4-methylbenzyl)piperazine-2,5-dione], the “CDMF75 IC15” value was 6.0 µM.
With Cc1cc(Cl)cnc1N1CC(=O)N(Cc2ccc(F)cc2)C2(CN(c3ccccn3)C2)C1=O [Compound 883, 8-(5-chloro-3-methyl-pyridin-2-yl)-5-(4-fluoro-benzyl)-2-(pyridin-2-yl)-2,5,8-triazaspiro[3.5]-nonane-6,9-dione] the “CDMF75 IC15” value was 0.4 µM.
N#Cc1ccc(N2CC(=O)N(Cc3ccc(C(F)(F)F)cc3)[C@@H](C3CCC3)C2=O)c(F)c1 [Compound 284, (S)-4-(3-cyclobutyl-2,5-dioxo-4-(4-(trifluoromethyl)benzyl)piperazin-1-yl)-3-fluorobenzonitrile] was tested, and the “CDMF75 IC15” value was 0.5 µM.
In the case of COC(=O)c1cccc(N2CC3(C2)C(=O)N(c2ccc(C#N)cc2F)CC(=O)N3Cc2ccc(C(F)(F)F)cc2)c1 [Compound 533, methyl 3-(8-(4-cyano-2-fluorophenyl)-6,9-dioxo-5-(4-(trifluoromethyl)benzyl)-2,5,8-triazaspiro[3.5]nonan-2-yl)benzoate], the “CDMF75 IC15” value was 0.3 µM.
In the case of N#Cc1ccc(N2CC(=O)N(Cc3ccc(C(F)(F)F)cc3)C3(CN(C(N)=O)C3)C2=O)c(F)c1 [Compound 204, 8-(4-cyano-2-fluorophenyl)-6,9-dioxo-5-(4-(trifluoromethyl)benzyl)-2,5,8-triazaspiro[3.5]nonane-2-carboxamide], the “CDMF75 IC15” value was 0.2 µM.
CC1(CCC(N)=O)C(=O)N(c2ncc(Cl)cc2F)CC(=O)N1Cc1ccc(C(F)(F)F)cc1 (centres unmarked) [Compound 656, 3-(4-(5-chloro-3-fluoro-pyridin-2-yl)-2-methyl-3,6-dioxo-1-(4-(trifluoro-methyl)benzyl)piperazin-2-yl)propanamide] was tested, and the “CDMF75 IC15” value was 9.9 µM.
O=C1CN(c2ncc(Cl)cc2F)C(=O)C2(CC2)N1Cc1ccc(Cl)cc1 [Compound 577, 7-(5-chloro-3-fluoropyridin-2-yl)-4-(4-chlorobenzyl)-4,7-diazaspiro[2.5]octane-5,8-dione] was tested, and the “CDMF75 IC15” value was 0.9 µM.
In the case of NC(=O)C12CC(C3C(=O)N(c4ncc(Cl)cc4F)CC(=O)N3Cc3ccc(C(F)F)cc3)(C1)C2 (centres unmarked) [Compound 790, 3-(4-(5-chloro-3-fluoro-pyridin-2-yl)-1-(4-(difluoromethyl)benzyl)-3,6-dioxopiperazin-2-yl)bicyclo[1.1.1]pentane-1-carboxamide], the “CDMF75 IC15” value was 4.9 µM.
In the case of CC(C)N1CC(=O)N(Cc2ccc(Cl)cc2)C2(CCN(c3ccccn3)C2)C1=O (centres unmarked) [Compound 128, 6-(4-chlorobenzyl)-9-isopropyl-2-(pyridin-2-yl)-2,6,9-triazaspiro[4.5]decane-7,10-dione], the “CDMF75 IC15” value was 0.8 µM.
O=C1C(C23CC(CO)(C2)C3)N(Cc2ccc(C(F)(F)F)cc2)C(=O)CN1c1ncc(Cl)cc1F (centres unmarked) [Compound 784, 1-(5-chloro-3-fluoropyridin-2-yl)-3-(3-(hydroxymethyl)bicyclo[1.1.1]pentan-1-yl)-4-(4-(trifluoromethyl)benzyl)piperazine-2,5-dione] was tested, and the “CDMF75 IC15” value was 6.8 µM.
Cc1nnc(N2CC3(C2)C(=O)N(C(C)C)CC(=O)N3Cc2ccc(Cl)cc2)o1 [Compound 45, 5-(4-chlorobenzyl)-8-isopropyl-2-(5-methyl-1,3,4-oxadiazol-2-yl)-2,5,8-triazaspiro[3.5]-nonane-6,9-dione] was tested, and the “CDMF75 IC15” value was 12.8 µM.
